Molecules are shown by their SMILES. Like-named read-outs stand apart in the source and are kept apart here.

In one data set the test system is subterranean termites. The conditions noted are these: for Damage to the treated wood sample: 4-week observation period; for Termites dead within 24 hours: of 30 termites. The protocol: 180 active subterranean termites, were grown in 9 cm Petri dishes in the dark with 30 termites in each of six dishes. In each dish, a filter paper is on the bottom to retain moisture along with a piece of treated southern yellow pine wood (relatively fresh, 3×3×7 cm). The wood was treated with one of the following natural products isolated from Camptotheca acuminata or water (as control) for 30 minutes and then dried: (1) pure CPT (>97%) (3.8 mg/l=3.8 ppm, with water as the solvent); (2) OHCPT (10-hydroxycamptothecin: 3.8 mg/l=3.8 ppm, with water as the solvent); (3) raw extraction of CPTs from young tissues (alkaloids: 8.75 mg/l=8.75 ppm, with 95% ethanol as the solvent); (4) flavonoids (13.9 mg/l=13.9 ppm with water as the solvent); (5) ethanol (95%); and (6) water (control). The termites and wood condition were checked and recorded every hour for the first 12 hours and every 8 hrs thereafter. The observation period was 4 weeks (May 20 to Jun. 17, 2000).

Data set [1] in a line: Effect of the particleboard process on CPT content (FIG. 4). The class given is physicochemical. The conditions noted are these: heat and pressure pressing. An excerpt: Particleboard is an engineered wood product used as core material in the construction of home and office furniture, shelving and kitchen cabinets, as well as commercial and institutional fixtures. The major source for the manufacture of particleboard is southern yellow pine. Termite-resistant particleboard is not available. The present invention provides a method of preparing termite-resistant particleboards by including 30-70% Camptotheca wood in combination with currently-existing particleboard materials, e.g., pine, in a process as shown in Example 6. […] Similarly, the CPT content 260 in the raw material from bark and wood 290 and the particleboard from bark and wood 300 remained the same after the particleboard process.
Termite-resistant particleboards were prepared in accordance with the invention, using southern yellow pine mixed with natural Camptotheca acuminata wood after extraction of flavonoids. Six 5-year-old Camptotheca acuminata trees were harvested. The wood materials were classified into: trunk wood without bark, trunk wood with bark, branch wood without bark, and branch wood with bark. The sample materials were chipped and milled into uniformly small particles (20-30 mesh) and soaked in water for a week. The southern yellow pine wood was prepared in the same size as the control sample. […]

Data set [2] concerns subterranean termites (Reticultitermes virginicus). The protocol: 60 active subterranean termites (Reticultitermes virginicus) were grown in 9 cm Petri dishes in dark with 15 termites (10 soldiers and 5 workers) in each of four dishes. In each dish, a filter paper is placed on the bottom of the dish to retain moisture along with a piece of treated southern yellow pine wood (decayed, 3×3×7 cm). The wood was treated with one of the following natural products isolated from Camptotheca acuminata or water (as control) for 30 minutes and then dried: (1) pure CPT (>97%) (camptothecin, 3.8 mg/l=3.8 ppm, with water as the solvent); (2) raw extraction of CPTs from young tissues (alkaloids: 8.75 mg/l=8.75 ppm, with 95% ethanol as the solvent); (3) flavonoids (13.9 mg/l=13.9 ppm with water as the solvent); and (4) water (control). The termites and wood condition were checked and recorded every hour for the first 12 hours and every 8 hrs thereafter. The observation period was 4 weeks (May 17 to Jun. 14, 2000).

The test system of data set [3] is Masson pine caterpillar (Dendrolimus punctatus). Particulars: cited from earlier work.
Data set [4] has as its system termites (including drywood termite, Incistermes snyderi). Nature of the data set: Field test of termite resistance of sprayed southern yellow pine boards (Example 3). It is filed as in vivo. The protocol: There were 4 treatments including 3 pieces of sound southern yellow pine boards (30×9×4 cm) each. The wood was treated with either a natural product isolated from Camptotheca acuminata or water as a control. […] The boards were randomly placed on the ground where no termites were observed. The wood condition and termite activity were checked and recorded every week beginning May 20, 2000.

A short description of data set [5]: Water soak of Camptotheca stakes, HPLC analysis of extracted flavonoids and CPTs (Example 5, FIG. 3). It is filed as physicochemical. The source says: For example, the Camptotheca wood containing CPTs (CPT concentrations: 30-100 ppm) after extraction of flavonoids may be used in preparation of termite-resistant wood products such as composition boards, particleboards, and fiberboards. FIG. 3 illustrates the effect of a water soak on the content of flavonoids and CPT over time.
In July 2000, we conducted an experiment with several pieces of Camptotheca stakes (c. 10 cm in length and 3 cm in diameter) soaked in nanopure water. A month later, water samples were collected from the water with stakes and only water (as control) for HPLC analysis.

[6] abbreviates: 30 termites per dish, CPT 3.8 ppm, OHCPT 3.8 ppm, raw CPTs 8.75 ppm, flavonoids 13.9 ppm, ethanol 95%.
[7] abbreviates: 15 termites per dish, wood treated 30 min, CPT 3.8 ppm, raw CPTs 8.75 ppm, flavonoids 13.9 ppm.

With `CCO` [Ethanol, ethanol], the “Damage to the treated wood sample” value with subterranean termites was “No wood damage”. In the data set on subterranean termites (in vivo), the “Mortality within 1 week” value came out at 100% and the “Mortality within 4 weeks” value worked out at 100%.

For the molecule `CC[C@@]1(O)C(=O)OCc2c1cc1n(c2=O)Cc2cc3cc(O)ccc3nc2-1` [OHCPT, 10-hydroxycamptothecin], in the data set on subterranean termites, the “Damage to the treated wood sample” value is given as “no obvious damage” and the “Termites dead within 24 hours” value is listed as 16. The “Time within which termite mortality was 100%” value in the data set on subterranean termites (30 termites per dish) is given as ≤ 6 days. For the same molecule, in the data set on subterranean termites (setting [6]), the “Mortality within 1 week” value stood at 100% and the “Mortality within 4 weeks” value was found to be 100%.

Turning to `CC[C@@]1(O)C(=O)OCc2c1cc1n(c2=O)Cc2cc3ccccc3nc2-1` [CPT, camptothecin], in data set [1], the “Effect of particleboard process on CPT content” value is on record as “no significant effect”. The “Damage to the treated wood sample” value (in data set [2] (4-week observation period); with subterranean termites) was “no obvious damage” in each case. In addition, the “Time within which termite mortality was 100%” value in data set [2] (15 termites per dish, CPT 3.8 ppm, raw CPTs 8.75 ppm) was ≤ 4 days; in the data set with subterranean termites (30 termites per dish) it was ≤ 5 days. Besides, the “Mortality within 1 week” value in data set [2] (setting [7]) was 100%; in data set [2] (15 termites per dish, wood treated 30 min, CPT 3.8 ppm, raw CPTs 8.75 ppm, flavonoids 13.9 ppm, listed as purified CPT) it was “all termites dead”; in the data set on subterranean termites (setting [6]), 100%. Moreover, the “Mortality within 4 weeks” value (in data set [2] (setting [7]); in the data set with subterranean termites (setting [6])) was 100% each time. Moreover, the “Time after which termites became inactive” value in data set [2] (CPT 3.8 ppm) was 6 h. In addition, in data set [2] (of total 15 termites, CPT 3.8 ppm), the “Termites dead within 36 hours” value was “Six”. Also, the “Termite damage of treated pine stakes within a week” value in data set [2] (summary of Examples 1 and 2) is given as “damage free”. Besides, the Hatchability of eggs entry in data set [3] (after treatment with 0.05% CPT) was “decreased”. Besides, the “Mortality of insect larvae, pupae, and adults” value in data set [3] (after treatment with CPT) is reported as “increased”. Further, the “Termite damage of treated wood (based on weight)” value in data set [4] (field, three months, CPT 380 ppm, raw CPTs 8.75 ppm, flavonoids 13.9 ppm) is listed as “no termite damage”. Moreover, the “Termite damage of treated southern yellow pine lumber in the field” value in data set [4] (within 3 months) was “damage-free”. For the same molecule, in data set [5] (day 7), the “Extraction by water soak at day 7 (FIG. 3)” value is “not extracted”. In addition, the “Extraction by water soak at day 30 (FIG. 3)” value in data set [5] (day 30) is “remains water insoluble”. In addition, the “Time after which all termites became inactive” value with subterranean termites (CPT 3.8 ppm) was found to be 10 h. Besides, the “Termite behaviour toward the treated wood (repellency / attraction)” value in the data set with subterranean termites (in vivo) is “avoided getting close to the wood after the initial contract”. The “Termites dead within 24 hours” value in the data set with subterranean termites came to 12.

These data come from patent US20020018762A1, “Utilizing camptotheca products for termite control” (priority 2000, published 2002).
